The test system of test [1] is EPHB2 kinase domain. The experiment in a line: pTyr-Var library bacterial peptide display kinase screen (enrichment scores). It counts as biochemical, human. The conditions noted are these: sheet EPHB2.
Test [2] concerns the target c-Src kinase domain (Homo sapiens, UniProt P12931). The test is described as above. It counts as biochemical. The conditions noted are these: sheet "Src".
The test system of test [3] is Fer kinase domain. Described as above. The format is biochemical, mouse. To be noted: sheet "Fer".
Test [4] deals with EPHB1 kinase domain. Described as above. It counts as biochemical, human. To be noted: for Screen: sheet EPHB1, effect of the variant peptide relative to its reference peptide in the pTyr-Var library screen (enrichment scores); for Screen (variant relative to reference peptide, measured in the pTyr-Var library screen): sheet "EPHB1", variant seq vs reference seq, bacterial peptide display enrichment.

Test [5] has as its target T1, c-Abl kinase domain (Mus musculus, UniProt P00520).
T1 sequence (P00520 242-493 limits assumed): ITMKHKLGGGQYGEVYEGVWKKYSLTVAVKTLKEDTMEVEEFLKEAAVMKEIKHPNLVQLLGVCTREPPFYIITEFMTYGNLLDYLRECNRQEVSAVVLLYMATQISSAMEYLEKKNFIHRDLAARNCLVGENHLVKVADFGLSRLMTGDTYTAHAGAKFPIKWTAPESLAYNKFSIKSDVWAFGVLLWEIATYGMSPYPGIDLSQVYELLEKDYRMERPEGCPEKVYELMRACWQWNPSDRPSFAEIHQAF
The description is as above. The format is biochemical.

Test [6] has as its target human c-Src SH2 domain (residues 143-250) (human, UniProt P12931-1 143-250, biotin on the Avi tag (co-expression with the biotin ligase BirA)). Briefly: fluorescence polarisation; competition: unlabeled phosphopeptide serially diluted against 30 nM fluorescent peptide and 240 nM (1.5 x KD) c-Src SH2; same buffer; 25 °C; cubic binding equation. The conditions noted are these: both partners purified. Background: Fluorescence polarisation rises when a labelled molecule tumbles more slowly, as on binding a larger partner.

Where [7] appears, read: effect of variant peptide relative to its reference peptide in the pTyr-Var library screen (enrichment scores).
The mark [8] stands for this setting: variant peptide versus its reference peptide in the pTyr-Var library screen.
The mark [9] stands for this setting: value of the variant peptide against its reference peptide in the pTyr-Var library screen with Fer.
[10] abbreviates: effect of the variant peptide relative to its reference peptide in the pTyr-Var library screen.
The mark [11] stands for this setting: effect of the variant relative to its reference peptide in the pTyr-Var library screen.
[12] abbreviates: variant peptide relative to its reference peptide, pTyr-Var library screen enrichment.
Setting [13] is: fig5-data2, sheet "Abl", Screen for the variant/reference peptide pair, pTyr-Var library.

This note sets out measurements from paper PMC10065799, “High-throughput profiling of sequence recognition by tyrosine kinases and SH2 domains using bacterial peptide display” (eLife, 2023).

Square brackets hold non-standard residues; d marks the D form. pY = N[C@@H](Cc1ccc(OP(=O)(O)O)cc1)C(=O)O

Regarding ADAGMYGVLPW [PLP1_Y207_R205G], the Screen in test [1] (setting [7]) was 1.359; in test [2] (setting [8]) it was -0.01805; in test [3] (setting [9]) it was 1.986; in test [4], 0.87.

DGPVNYEEFVQ [CALM2_Y139_Q136P] returned a Screen in test [4] of -0.2324.

For the molecule EELLRYAIVTP [POC5_Y37_H36R], the Screen is on record as -3.509 in test [3] (setting [9]) and -2.287 in test [4].

On to ENGPFYASFPP [GDAP2_Y488_T489A_YF], for which the Screen was found to be 2.037 in test [1] (setting [7]), 0.1608 in test [2] (setting [10]), 0.7376 in test [3] (setting [9]) and 1.693 in test [4].

As for FRSSLYSLMET [MYO5C_Y633_L634S], the Screen in test [1] (setting [7]) stood at 1.684; in test [2] (setting [8]), 2.978; in test [3] (setting [9]) it was 3.791; in test [4], 2.366.

In the case of GRKTLYSFFSP [UNG_Y8_Q4R], the Screen in test [1] (setting [11]) is reported as -1.763; in test [2] (setting [8]) it was -1.198; in test [3] (setting [12]), -1.21. Besides, the “Screen (variant relative to reference peptide, measured in the pTyr-Var library screen)” value in test [4] is given as -1.828.

With HEEDNYIEMIP [NWD2_Y566_L569M], the Screen is on record as -0.6493 in test [1] (setting [7]) and -0.841 in test [4].

Take HKNNNYEPSLF [BRCA2_Y57_N60S]: the Screen in test [4] is reported as -1.049.

For the molecule HLVLNYGVCFC [JAK2_Y613_V617F], the Screen in test [1] (setting [7]) is on record as 0.8396; in test [5] (setting [13]), 1.962; in test [4], 0.008865.

On to HNMPIYEGFAL [ACTA1_Y168_V165M_YF], for which the Screen in test [1] (setting [7]) was 0.1725; in test [2] (setting [10]) it was 0.3248; in test [3] (setting [9]) it was 0.2696; in test [5] (setting [13]), -1.455; in test [4], 0.09959.

Regarding HNVPIYEGFGL [ACTA1_Y168_A172G_YF], the Screen in test [1] (setting [7]) is on record as 0.031; in test [2] (setting [10]), -0.3085; in test [3] (setting [9]), -0.2533; in test [5] (setting [13]) it was -0.8833; in test [4], 0.1073.

For INPIIYAFVVE [CCR5_Y297_G301V], the Screen in test [1] (setting [7]) is reported as -1.294; in test [2] (setting [10]) it was -0.9018; in test [3] (setting [9]) it was -1.367; in test [4], -1.262.

Take ISSLLYELLEE [TRPC6_Y896_R895L]: the Screen came out at 3.042 in test [1] (setting [11]), 3.086 in test [2] (setting [8]) and 3.789 in test [3] (setting [12]). The “Screen (variant relative to reference peptide, measured in the pTyr-Var library screen)” value in test [4] is given as 3.527.

Turning to KQQEIYQEVTQ [CD209_Y239_L242V], the Screen is recorded as 0.564 in test [1] (setting [7]), -0.1121 in test [2] (setting [10]), 1.048 in test [3] (setting [9]) and 0.2667 in test [4].

Regarding KSFDMYSGDVM [FAM3D_Y122_A118S], the Screen in test [4] was determined as 0.345.

In the case of LDLPGYCLLRE [CCDC116_Y291_P293L], the Screen in test [5] (setting [13]) was -2.162; in test [4] it was 0.4195.

For the molecule LFMGDYVGRGF [PPP2CA_Y86_D88G_YF], the Screen in test [2] (setting [8]) is 1.98; in test [4], 1.681.

For the molecule LHQSTYQCFDV [SLC7A14_Y693_R695C_YF], the Screen in test [2] (setting [8]) worked out at 0.927; in test [3] (setting [12]), 1.307. In test [4], the “Screen (variant relative to reference peptide, measured in the pTyr-Var library screen)” value is on record as 1.159.

In the case of LKDEDYLKDTV [HAUS3_Y582_I586T], the Screen came to 0.5716 in test [1] (setting [7]) and 0.8437 in test [4].

As for LNGDRYFKGIV [DCX_Y64_R59L], the Screen in test [1] (setting [7]) came to 1.457; in test [3] (setting [9]) it was 2.021; in test [5] (setting [13]), 0.06367; in test [4] it was 2.112.

For the molecule LTTEAYEWEPC [ELMOD3_Y61_R66C], the Screen in test [1] (setting [7]) was 1.193; in test [2] (setting [10]), 2.164; in test [3] (setting [9]), 1.258; in test [4], 1.595.

Take NHQFDYTFHWT [CSNK1A1_Y294_D297H_YF]: the Screen in test [3] (setting [9]) came out at 3.7; in test [4] it was 1.13.

In the case of NKFTTYLPWLP [C9orf24_Y126_R129W_YF], the Screen in test [1] (setting [7]) is 3.885; in test [2] (setting [10]), 3.427; in test [3] (setting [9]) it was 4.402; in test [4], 3.061.

For the molecule NNHGNYIVHLG [ETFDH_Y172_R175H], the Screen is reported as 1.999 in test [1] (setting [7]) and 2.943 in test [4].

Turning to NREGVYTDFAP [TGFBI_Y537_V539D], the Screen in test [1] (setting [11]) is listed as -1.696; in test [2] (setting [8]), -0.2611; in test [3] (setting [12]), -1.802. The “Screen (variant relative to reference peptide, measured in the pTyr-Var library screen)” value in test [4] is -2.047.

As to NVVQEYERVII [NPHS2_Y131_K126N], the Screen in test [1] (setting [7]) was -0.3645; in test [3] (setting [9]), 0.1682; in test [4] it was -0.6061.

Regarding PFTRNYFVWAV [CYBA_Y87_R90W_YF], the Screen in test [1] (setting [7]) was determined as 2.204; in test [3] (setting [9]) it was 2.258; in test [5] (setting [13]), 0.4523; in test [4] it was 3.209.

As to PLEGEYFTLQI [TP53_Y327_D324E], the Screen in test [1] (setting [11]) is on record as 1.812; in test [2] (setting [8]), 0.9967; in test [3] (setting [12]), 1.311. Further, in test [4], the “Screen (variant relative to reference peptide, measured in the pTyr-Var library screen)” value came to 1.418.

Take PLSGEYFTLQI [TP53_Y327_D324S]: the Screen in test [2] (setting [8]) is given as -0.1322; in test [5] (sheet "Abl", effect of variant peptide relative to its reference peptide in pTyr-Var library screen (enrichment)), -0.7361. Besides, the “Screen (variant relative to reference peptide, measured in the pTyr-Var library screen)” value in test [4] is reported as 0.4408.

In the case of QDEHGYISLCF [HSPB1_Y133_R136L], the Screen in test [4] was 1.02.

Take QNTVDYFDLFG [PTPN11_Y62_G60V_YF]: the Screen was -4.099 in test [1] (setting [7]), -1.317 in test [2] (setting [8]) and -3.39 in test [4].

Consider QPSALYEDRFL [ASS1_Y83_S79P_YF], for which the Screen in test [1] (setting [7]) is given as 0.0303; in test [2] (setting [10]) it was -0.4742; in test [3] (setting [9]), 0.05915; in test [4], -0.4777.

On to QTPVLYTMLDH [MPZ_Y220_A221T], for which the Screen is -2.33 in test [1] (setting [7]), -0.5854 in test [2] (setting [10]), 0.203 in test [3] (setting [9]) and -1.287 in test [4].

As to RQSTLYSFFPT [MSH6_Y8_K13T], the Screen was 0.1224 in test [1] (setting [7]), -0.09567 in test [2] (setting [10]), 1.758 in test [3] (setting [9]) and -0.1515 in test [4].

For SEHLIYLEFKS [RASGRP1_Y215_T214I], the Screen in test [2] (setting [8]) is on record as 0.01051; in test [5] (setting [13]), 0.2716; in test [4], 0.7598.

On to VDTGVYAVPPP [BCAR1_Y410_S407T], for which the Screen in test [1] (setting [7]) is given as 0.0652; in test [2] (setting [10]), -0.01564; in test [3] (setting [9]) it was 0.101; in test [4], 0.1474.

Regarding VVQGIYGFHHH [UFSP2_Y285_Y290H_YF], the Screen was -2.017 in test [1] (setting [11]), 0.2882 in test [2] (setting [8]) and -0.4799 in test [3] (setting [12]). Also, the “Screen (variant relative to reference peptide, measured in the pTyr-Var library screen)” value in test [4] is on record as -1.444.

B1: CBS_Y308 phosphopeptide Ac-QVEGIG(pY)DFIPTG-NH2 (peptide)
peptide: Ac-QVEGIG[pY]DFIPTG-NH2
SMILES: CC[C@H](C)[C@H](NC(=O)CNC(=O)[C@H](CCC(=O)O)NC(=O)[C@@H](NC(=O)[C@H](CCC(N)=O)NC(C)=O)C(C)C)C(=O)NCC(=O)N[C@@H](Cc1ccc(OP(=O)(O)O)cc1)C(=O)N[C@@H](CC(=O)O)C(=O)N[C@@H](Cc1ccccc1)C(=O)N[C@H](C(=O)N1CCC[C@H]1C(=O)N[C@H](C(=O)NCC(N)=O)[C@@H](C)O)[C@@H](C)CC
notes: source: synthetic peptide (synthesized in-house, RP-HPLC purified)
Turning to B1, in test [6], the binding result is “binds”.

B2: CBS_Y308_G307S phosphopeptide Ac-QVEGIS(pY)DFIPTG-NH2 (peptide)
peptide: Ac-QVEGIS[pY]DFIPTG-NH2
SMILES: CC[C@H](C)[C@H](NC(=O)CNC(=O)[C@H](CCC(=O)O)NC(=O)[C@@H](NC(=O)[C@H](CCC(N)=O)NC(C)=O)C(C)C)C(=O)N[C@@H](CO)C(=O)N[C@@H](Cc1ccc(OP(=O)(O)O)cc1)C(=O)N[C@@H](CC(=O)O)C(=O)N[C@@H](Cc1ccccc1)C(=O)N[C@H](C(=O)N1CCC[C@H]1C(=O)N[C@H](C(=O)NCC(N)=O)[C@@H](C)O)[C@@H](C)CC
notes: as for B1
For B2, the binding result in test [6] is listed as “binds”.
